Data taken from patent US5494907A, “11-β substituted-19-nor steroids” (Roussel UCLAF, priority 1993, dated 1996).

Target: T1, hGR (recombinant human glucocorticoid receptor) (Homo sapiens, UniProt P04150)
T1 construct: made in house; host or cells: SF9 insect cells, recombinant baculovirus
T1 sequence (P04150 1-777): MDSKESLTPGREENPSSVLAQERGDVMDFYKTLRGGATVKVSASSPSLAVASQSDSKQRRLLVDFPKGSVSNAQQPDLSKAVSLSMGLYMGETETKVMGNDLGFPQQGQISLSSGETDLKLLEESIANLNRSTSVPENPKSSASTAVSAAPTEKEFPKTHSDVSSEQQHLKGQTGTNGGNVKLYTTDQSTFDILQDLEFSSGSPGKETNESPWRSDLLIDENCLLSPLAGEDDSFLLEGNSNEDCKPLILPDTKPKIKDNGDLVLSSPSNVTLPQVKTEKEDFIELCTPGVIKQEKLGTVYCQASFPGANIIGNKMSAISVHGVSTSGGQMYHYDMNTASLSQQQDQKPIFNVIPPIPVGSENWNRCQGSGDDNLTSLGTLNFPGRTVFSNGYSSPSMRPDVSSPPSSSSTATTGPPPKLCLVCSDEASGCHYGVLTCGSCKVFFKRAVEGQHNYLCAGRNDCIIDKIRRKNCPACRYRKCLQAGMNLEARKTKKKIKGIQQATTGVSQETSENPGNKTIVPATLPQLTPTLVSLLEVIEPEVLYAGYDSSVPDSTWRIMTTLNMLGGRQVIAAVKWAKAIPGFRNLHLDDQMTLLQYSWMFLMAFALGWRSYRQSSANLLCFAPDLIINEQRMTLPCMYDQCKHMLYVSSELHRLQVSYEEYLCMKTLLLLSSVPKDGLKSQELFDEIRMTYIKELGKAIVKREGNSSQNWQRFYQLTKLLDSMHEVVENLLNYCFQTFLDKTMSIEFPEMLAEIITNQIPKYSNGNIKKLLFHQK
Assay: Relative bond affinity (RBA) on recombinant human glucocorticoid receptor, displacement of tritiated 6,21-dimethyl-Δ1,4,6-pregnatrien-11β,17β-diol-20-yn-3-one
Format: binding
Details: for RBA hGR: Dexamethasone = 100, 0° C., 24 hours; for affinity for the glucocorticoid receptor (in words): conclusion in words
Excerpt: 1--Activity on the hormonal receptors using either the natural hormonal receptor of a rat (AR), or the recombinant human receptor (PR, GR and ER).
Human glucocorticoid receptor
A supernatant of SF9 cells containing the recombinant human glucocorticoid receptor was obtained by the process described above for the progesterone receptor using the cDNA fragment described HOLLENBERG et al. (Nature (1985), Vol. 318 No. 19/26, p. 635) containing the region coding for the human glucocorticoid receptor. The cells were lysed in a lysis buffer (2). The supernatant was incubated at 0° C. for 24 hours with a constant concentration (T) of 6,21-dimethyl-Δ1,4,6-pregnatrien-11β,17β-diol-20-yn-3-one tritiated in the presence of increasing concentrations either of unlabelled dexamethasone (0-1000×10^-9 M), or of the unlabelled product under test (1 to 25000×10^-9 M). The concentration of bound tritiated 6,21-dimethyl-Δ1,4,6-pregnatrien-11β,17β-diol-20-yn-3-one (B) was then measured in each incubate by the technique of adsorption with carbon dextran.
Calculation of the relative bond affinity (RBA).
The following 2 curves were traced: percentage of bound tritiated hormone B/BO as a function of the logarithm of the concentration of unlabelled reference hormone or as a function of the logarithm of the concentration of the unlabelled product under test.
The straight line of the following equation was determined:
BO=Concentration of bound tritiated hormone in the absence of any unlabelled product,
B=Concentration of bound tritiated hormone in the presence of a concentration X of unlabelled product,
B min=Concentration of bound tritiated hormone in the presence of a large excess of cold reference hormone (500 nM). The intersections of the straight line I50 and the curves allowed the evaluation of the concentrations of unlabelled reference hormone (CH) and of the unlabelled product under test (CX) which inhibited by 50% the specific binding of the tritiated hormone on the receptor.
The relative bond affinity (RBA) of the product under test was determined by the equation:
The RBA's of the reference products estradiol, progesterone, dexamethasone and testosterone were arbitrarily taken to be equal to 100.

SMILES | RBA hGR | affinity for the glucocorticoid receptor (in words)
CCCCNS(=O)(=O)CCCCCOc1ccc([C@H]2C[C@]3(C)[C@@H](O)CC[C@H]3[C@@H]3CCc4cc(O)ccc4[C@H]32)cc1 [Example 2, N-butyl-5-[4-(Δ1,3,5(10)-estratrien-3,17β-diol-11β-yl)phenoxy]-pentanesulfonamide] | 82 | marked affinity
CCCCN(C)S(=O)(=O)CCCCCOc1ccc([C@H]2C[C@]3(C)[C@@H](O)CC[C@H]3[C@@H]3CCc4cc(O)ccc4[C@H]32)cc1 [Example 7, N-butyl-5-[4-(Δ1,3,5(10)-estratrien-3,17β-diol-11β-yl)phenoxy]-N-methyl-pentanesulfonamide] | 152 | marked affinity
CN(CC(F)(F)C(F)(F)C(F)(F)F)S(=O)(=O)CCCCCOc1ccc([C@H]2C[C@]3(C)[C@@H](O)CC[C@H]3[C@@H]3CCc4cc(O)ccc4[C@H]32)cc1 [Example 8, 5-[4-(Δ1,3,5(10)-estratrien-3,17β-diol-11βyl)-Phenoxy]-N-(2,2,3,3,4,4,4-heptafluorobutyl)-N-methyl-pentanesulfonamide] | 114 | marked affinity
